Source: patent US20130237415A1 (priority 2010, published 2013)
Like-named read-outs stand apart in the source and are kept apart here.

Key:
Fusarium graminearum [1] = format: in vivo; conditions: for % FHB Control* / FHB Area / FHB Area (% of Control) / Observed % FHB Efficacy: spring wheat; for % FHB Control*: Group A, GS 59, 100 gai/ha, relative to inoculated untreated check; for FHB Area / FHB Area (% of Control) / Observed % FHB Efficacy: Group B
Fusarium graminearum [2] = format: in vivo; conditions: for % DON Reduction: spring wheat, Group A, GS 59, 100 gai/ha, relative to inoculated untreated check; for DON Levels (% of Control) / DON Levels (ppm) / Observed % DON Efficacy: harvested spring wheat grain, Group B
Fusarium verticillioides = conditions: for F. verticilliodes disease severity (in words): safeners alone at 100 gai/ha
Experimental: Corn seeds of the Garst hybrid 86C73-3000GT were planted and grown in the greenhouse at 22° C., 12 hours of light/12 hours of dark using an experiment based on a randomized complete block (RCB) design with ten replicates.
Safeners tested were: N-(2-methoxybenzoyl)-4-[(methylaminocarbonyl)amino]benzenesulfonamide, Cyprosulfamide, and Isoxadifen, alone and in combination with Prothioconazole fungicide, were applied at the beginning of tasselling stage (GS 51-55) at rates of 100 gai/ha. Prothioconazole was tested alone at rates of 50, 100, and 200 gai/ha. Prothioconazole was tested in combination with safeners at 100 gai/ha. An additional treatment of Prothioconazole at 50 gai/ha+Isoxadifen at 100 gai/ha was included. All treatments were applied a water volume of 220 L/ha using a track sprayer. The adjuvant X-77 was included in each treatment of maize at a rate of 0.125% v/v. Untreated non-innoculated and inoculated control treatments were included within the treatment list.
Maize was inoculated with Fusarium verticillioides at flowering/silking stage (GS 61-65) by spraying conidia of F. verticillioides on the emerged silk at 1.0×10^6 conidia/mL. Treated plants where then incubated in the dark at 22° C. for 3 days in the dark at 100% R.H., followed by 6 days at 65% R.H. at 12 hour light/dark intervals at 22° C.
Maize was harvested at maturity, the weight of corn seeds per ear was recorded. Fusarium disease severity per maize ear was determined by plating a ten seeds per ear on Fusarium selective agar media. Seeds were surface sterilized with 5% sodium hypochloride for 1 minute followed by washing with sterile water for 1 minute, prior to plating on selective media. After plating, seeds were incubated in the dark at 15° C. for 10 days.

CCCCCC(C)OC(=O)COc1ccc(Cl)c2cccnc12 (centres unmarked) [Cloqunitocet, 1-methylhexyl[(5-chloro-8-quinolinyl)oxy]acetate]
% FHB Control* (Fusarium graminearum [1]): 1%
% DON Reduction (Fusarium graminearum [2]): 9%

O=C(O)C1=NOC(c2ccccc2)(c2ccccc2)C1 [Isoxadifen, 4,5-dihydro-5,5-diphenyl-3-isoxazolecarboxylic acid]
% FHB Control* (Fusarium graminearum [1]): 0%
FHB Area (Fusarium graminearum [1]; GS 65/69, 100 gai/ha): 81.3%
FHB Area (% of Control) (Fusarium graminearum [1]; GS 65/69, 100 gai/ha): 133.9%
Observed % FHB Efficacy (Fusarium graminearum [1]; GS 65/69, 100 gai/ha): 0.0%
effectiveness of treatment for wheat (in words) (Fusarium graminearum [1]; wheat): Particularly effective
DON Levels (% of Control) (Fusarium graminearum [2]; GS 65/69, 100 gai/ha): 106.6%
DON Levels (ppm) (Fusarium graminearum [2]; GS 65/69, 100 gai/ha): 29.098 ppm
Observed % DON Efficacy (Fusarium graminearum [2]; GS 65/69, 100 gai/ha): 0.0%
% DON Reduction (Fusarium graminearum [2]): 17%
effectiveness of treatment for maize (in words) (Fusarium verticillioides; maize): Particularly effective
F. verticilliodes disease severity (in words) (Fusarium verticillioides; maize): greatly reduced

CNC(=O)Nc1ccc(S(=O)(=O)NC(=O)c2ccccc2OC)cc1
% FHB Control* (Fusarium graminearum [1]): 7%
% DON Reduction (Fusarium graminearum [2]): 0%
F. verticilliodes disease severity (in words) (Fusarium verticillioides; maize): greatly reduced

Prothioconazole
FHB Area (Fusarium graminearum [1]; GS 65/69, 50 gai/ha): 28.1%
FHB Area (% of Control) (Fusarium graminearum [1]; GS 65/69, 50 gai/ha): 46.3%
Observed % FHB Efficacy (Fusarium graminearum [1]; GS 65/69, 50 gai/ha): 53.7%
FHB Area (Fusarium graminearum [1]; GS 65/69, 100 gai/ha): 57.5%
FHB Area (% of Control) (Fusarium graminearum [1]; GS 65/69, 100 gai/ha): 94.7%
Observed % FHB Efficacy (Fusarium graminearum [1]; GS 65/69, 100 gai/ha): 5.3%
FHB Area (Fusarium graminearum [1]; GS 65/69, 200 gai/ha): 7.3%
FHB Area (% of Control) (Fusarium graminearum [1]; GS 65/69, 200 gai/ha): 12.0%
Observed % FHB Efficacy (Fusarium graminearum [1]; GS 65/69, 200 gai/ha): 88.0%
DON Levels (% of Control) (Fusarium graminearum [2]; GS 65/69, 50 gai/ha): 37.6%
DON Levels (ppm) (Fusarium graminearum [2]; GS 65/69, 50 gai/ha): 10.274 ppm
Observed % DON Efficacy (Fusarium graminearum [2]; GS 65/69, 50 gai/ha): 62.4%
DON Levels (% of Control) (Fusarium graminearum [2]; GS 65/69, 100 gai/ha): 38.3%
DON Levels (ppm) (Fusarium graminearum [2]; GS 65/69, 100 gai/ha): 10.456 ppm
Observed % DON Efficacy (Fusarium graminearum [2]; GS 65/69, 100 gai/ha): 61.7%
DON Levels (% of Control) (Fusarium graminearum [2]; GS 65/69, 200 gai/ha): 15.8%
DON Levels (ppm) (Fusarium graminearum [2]; GS 65/69, 200 gai/ha): 4.322 ppm
Observed % DON Efficacy (Fusarium graminearum [2]; GS 65/69, 200 gai/ha): 84.2%
Fusarium verticilliodes disease severity per maize ear (in words) (Fusarium verticillioides; treated versus untreated control maize plants): reduced disease severity

CON(C(=O)c1cn(C)nc1C(F)F)C(C)Cc1c(Cl)cc(Cl)cc1Cl (centres unmarked) [3-difluoromethyl-1-methyl-1H-pyrazole-4-carboxylic acid methoxy-[1-methyl-2-(2,4,6-trichlorophenyl)-ethyl]-amide]
FHB Area (Fusarium graminearum [1]; GS 65/69, 50 gai/ha): 8.3%
FHB Area (% of Control) (Fusarium graminearum [1]; GS 65/69, 50 gai/ha): 13.7%
Observed % FHB Efficacy (Fusarium graminearum [1]; GS 65/69, 50 gai/ha): 86.3%
FHB Area (Fusarium graminearum [1]; GS 65/69, 100 gai/ha): 7.5%
FHB Area (% of Control) (Fusarium graminearum [1]; GS 65/69, 100 gai/ha): 12.4%
Observed % FHB Efficacy (Fusarium graminearum [1]; GS 65/69, 100 gai/ha): 87.6%
FHB Area (Fusarium graminearum [1]; GS 65/69, 200 gai/ha): 7%
FHB Area (% of Control) (Fusarium graminearum [1]; GS 65/69, 200 gai/ha): 11.5%
Observed % FHB Efficacy (Fusarium graminearum [1]; GS 65/69, 200 gai/ha): 88.5%
DON Levels (% of Control) (Fusarium graminearum [2]; GS 65/69, 50 gai/ha): 25.9%
DON Levels (ppm) (Fusarium graminearum [2]; GS 65/69, 50 gai/ha): 7.084 ppm
Observed % DON Efficacy (Fusarium graminearum [2]; GS 65/69, 50 gai/ha): 74.1%
DON Levels (% of Control) (Fusarium graminearum [2]; GS 65/69, 100 gai/ha): 16.1%
DON Levels (ppm) (Fusarium graminearum [2]; GS 65/69, 100 gai/ha): 4.388 ppm
Observed % DON Efficacy (Fusarium graminearum [2]; GS 65/69, 100 gai/ha): 83.9%
DON Levels (% of Control) (Fusarium graminearum [2]; GS 65/69, 200 gai/ha): 11.7%
DON Levels (ppm) (Fusarium graminearum [2]; GS 65/69, 200 gai/ha): 3.187 ppm
Observed % DON Efficacy (Fusarium graminearum [2]; GS 65/69, 200 gai/ha): 88.3%
